This is an account of results in patent publication US11096952B2, “Chemicals and methods to prevent and treat TGF-beta mediated activation of fibroblasts to reduce and treat cancer and fibrosis” (Board of Supervisors of Louisiana State University and …, priority 2016, dated 2021).

The subject of data set [1] is TGF-β-induced fibronectin expression. The experiment in a line: Western blot of TGF-β-induced fibronectin expression in MRC-5 fibroblasts (5 ng/ml TGF-β). Particulars: MRC-5, 5 ng/ml TGF-β, digoxin 30, 60, 120, 240 nM, 24 hours. In kind it is cell-based, human. From the text:
(§1) Representative blots are shown with two exposures of fibronectin to account for strong signal intensity. n=3.
On the technique in general: In western blotting, separated proteins are transferred to a membrane and probed.

For a further data set, the system named is WPMY-1 cells. In words: Viability / metabolic activity assay on WPMY-1 cells. The method, then:
Metabolically viable cells (indicated by bar; left y-axis) are indicated by fluorescent intensity (560/590 nm).
Cardiac glycosides have been shown previously to inhibit cell growth in a variety of cell types, in order to determine whether cardiac glycosides inhibited TGE-β-induced fibronectin expression by affecting metabolic activity, viability assays were performed on WPMY-1 cells over 48 hours in 1% FBS DMEM.

Data set [2] concerns TGF-β-induced fibronectin. As to conditions: MRC-5, 10 ng/mL TGF-β, 24 hours, low concentrations alone or in combination. As for the experimental part:
(§2) FIGS. 13A-13C: MRC-5 lung fibroblast cells were serum-starved 24 hours then treated with or without 10 ng/mL TGF-β for 24 hours (T-24 hr). […] FN: fibronectin, YAP: yes-activated protein, TAZ: transcriptional coactivator with PDZ-binding motif, and SMA(ACTA2): smooth muscle actin. Representative western blot is shown (n=2). […] Cells were fixed in −20C methanol for 15 minutes and immunolabeled for fibronectin. Cellomics arrayscan imaging was performed and staining intensity was quantified and analyzed for fibronectin expression on a per cell basis.
(§3) Turning now to FIGS. 13A-13E, in a clinical setting, it would be advantageous for the efficacy of the therapeutics that the activated fibroblasts be reversed to a quiescent state upon treatment. […] To test the combinations, the inventors obtained quantitative analysis of fibronectin staining in fibroblasts upon treatment with TGF-β in the presence or absence of drug combinations.

In data set [3] the test system is activated fibroblast phenotype. As to conditions: MRC-5 pre-activated with 10 ng/mL TGF-β 24 hours, then 24 hours treatment. As for the experimental part:
as §2, §3

For a further data set, the system named is WPMY-1 fibroblasts. The experiment in a line: Collagen/Matrigel contraction of WPMY-1 fibroblasts. As to conditions: WPMY-1 in collagen/Matrigel, 120 nM digoxin, 5 ng/ml TGF-β, 4 days.
For data set [4], the system named is TGF-β-induced fibronectin expression. In words: Western blot of TGF-β-induced fibronectin in J2 mouse fibroblast cells. In kind it is cell-based. Particulars: J2 (3T3-J2) mouse fibroblasts, digoxin 30-240 nM, 5 ng/ml TGF-β, 24 hours. The method, then:
(§4) A) WPMY-1 human fibroblast cells transfected with SMAD (left) or EGR1 (right) luciferase reporter were treated with or without 5 ng/ml TGF-β in the presence or absence of Digoxin (60 or 120 nM) for 24 hours. Relative luciferase activity is shown. *P<0.05, **P<0.01, ***P<0.001 are significant differences compared to values set to 1 (n=3, Values are ±SEM). B) J2 mouse fibroblast cells were treated with or without 5 ng/ml TGF-β in the presence or absence of increasing concentrations (30, 60, 120, or 240 nM) of digoxin for 24 hours. Representative blot is shown with two exposures of fibronectin to account for strong signal intensity (n=3).
(§5) Finally, J2 mouse fibroblast cells were treated with or without 5 ng/ml TGF-β in the presence or absence of increasing concentrations (30, 60, 120, or 240 nM) of digoxin for 24 hours.
The inventors used 3T3-J2 murine fibroblasts, which are highly resistant to cardiac glycosides compared to theft human counterpart.

In another data set the test system is EGR1 luciferase reporter. The experiment in a line: EGR1 luciferase reporter in WPMY-1 cells. In kind it is cell-based, human. As to conditions: WPMY-1, digoxin 60 or 120 nM, 5 ng/ml TGF-β, 24 hours. As for the experimental part: as §4, §5
A general note: A reporter such as luciferase makes a cellular process visible.

Data set [5] has as its system TGF-β-induced fibronectin expression. The experiment in a line: Western blot of TGF-β-induced fibronectin expression in HPS-19 fibroblasts. In kind it is cell-based, human. Particulars: HPS-19, 5 ng/ml TGF-β, digoxin 30, 60, 120, 240 nM, 24 hours.
Source text: as §1

The structures appear in SMILES notation.

Experimental for WPMY-1 fibroblasts: WPMY-1 (A) and MRC-5 (B) fibroblasts were treated with or without 120 nM digoxin±5 ng/ml TGF-β. […] WPMY-1 (C) and MRC-5 (D) fibroblasts embedded in collagen/Matrigel were treated with or without 120 nM digoxin±5 ng/ml TGF-β for 4 days post seeding. Data are shown as percent contracted area from initial 100% well confluence. *P<0.05 and **P<0.01 indicate significant differences (n=3, Values are ±SEM).

`C[C@H]1O[C@@H](O[C@H]2[C@@H](O)C[C@H](O[C@H]3[C@@H](O)C[C@H](O[C@H]4CC[C@@]5(C)[C@H](CC[C@@H]6[C@@H]5C[C@@H](O)[C@]5(C)[C@@H](C7=CC(=O)OC7)CC[C@]65O)C4)O[C@@H]3C)O[C@@H]2C)C[C@H](O)[C@@H]1O` [digoxin]: the “TGF-β-induced fibronectin expression (western blot)” value in data set [1] and in data set [5] was “prevents TGF-β-induced fibronectin expression in a dose dependent manner” each time. The “cell viability / metabolic activity” value in the data set on WPMY-1 cells is “no effect on cell viability”. Moreover, the “fibronectin staining intensity per cell (Cellomics arrayscan)” value in data set [2] is “the levels of fibronectin are reduced”. The “reversal of activated fibroblast phenotype (fibronectin, TAZ, smooth muscle actin)” value in data set [3] was “revert fibroblasts to the quiescent state”. Also, in the data set on WPMY-1 fibroblasts, the “TGF-β induced contraction of fibroblasts” value is reported as “inhibits TGF-β induced contraction of fibroblasts”. The “TGF-β-induced fibronectin expression in mouse fibroblasts” value was “did not have an effect on TGF-β-induced fibronectin expression” in data set [4] and “did not prevent fibronectin induction even at high concentrations” in data set [4] (listed as Digoxin). Further, the “EGR-1 dependent promoter (luciferase) activity” value in the data set with EGR1 luciferase reporter was “lowers the activation of promoter dependent on EGR-1”.
